Reference: ChEMBL document CHEMBL6134849, “A Water-Soluble Aggregation-Induced Emission Photosensitizer with Intrinsic Antibacterial Activity as an Antiplanktonic and Antibiofilm Therapeutic Agent” (J Med Chem, 2025)
Calls of active or inactive are those of the source. The calls are words filed in the database; no cut-off is given here.

What was measured:
[1] = system: Cell membrane; test: Induction of cell membrane damage in Staphylococcus aureus assessed as RNA leakage at 10 uM preincubated with compound for 20 mins followed by 600 nm light irradiation for 45 min by absorption based plate reader analysis; format: subcellular; settings: time 65.0 min
[2] = system: Staphylococcus aureus; test: Antibiofilm activity against Staphylococcus aureus assessed as mature biofilm eradication incubated for 24 hrs under dark condition in absence of light irradiation by crystal violet staining based analysis; format: functional, organism-based
[3] = system: Staphylococcus aureus; test: Downregulation of murG expression level in Staphylococcus aureus at 6.25 uM incubated for 1 hr in absence of light irradiation; format: functional
[4] = molecular target: DNA gyrase (Staphylococcus aureus) (UniProt P0A0K8+P20831); test: Inhibition of Staphylococcus aureus DNA gyrase supercoiling assessed as decrease in supercoiled DNA band intensity using relaxed pBR322 as substrate at 25 uM incubated for 30 mins in absence of light irradiation by gel based method; format: protein-complex assay
DNA gyrase (Staphylococcus aureus), sequence (P0A0K8 2-644 limits assumed): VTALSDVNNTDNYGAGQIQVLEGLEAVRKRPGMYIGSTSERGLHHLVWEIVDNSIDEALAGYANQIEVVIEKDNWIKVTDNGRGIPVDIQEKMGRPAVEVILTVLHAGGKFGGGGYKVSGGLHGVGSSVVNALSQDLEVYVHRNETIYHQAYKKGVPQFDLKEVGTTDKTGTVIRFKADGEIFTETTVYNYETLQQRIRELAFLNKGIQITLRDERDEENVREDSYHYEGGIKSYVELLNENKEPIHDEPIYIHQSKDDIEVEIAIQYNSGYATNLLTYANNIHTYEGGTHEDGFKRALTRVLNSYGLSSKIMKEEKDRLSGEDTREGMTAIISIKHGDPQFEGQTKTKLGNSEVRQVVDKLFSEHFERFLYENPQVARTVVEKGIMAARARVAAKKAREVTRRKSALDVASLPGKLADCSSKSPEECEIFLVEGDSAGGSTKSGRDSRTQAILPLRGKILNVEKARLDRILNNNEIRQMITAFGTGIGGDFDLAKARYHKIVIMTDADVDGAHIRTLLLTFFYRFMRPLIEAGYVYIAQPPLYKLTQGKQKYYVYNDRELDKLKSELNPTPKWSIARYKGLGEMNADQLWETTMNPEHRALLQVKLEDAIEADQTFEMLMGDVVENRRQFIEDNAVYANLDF
DNA gyrase (Staphylococcus aureus), sequence (P20831 whole entry partner): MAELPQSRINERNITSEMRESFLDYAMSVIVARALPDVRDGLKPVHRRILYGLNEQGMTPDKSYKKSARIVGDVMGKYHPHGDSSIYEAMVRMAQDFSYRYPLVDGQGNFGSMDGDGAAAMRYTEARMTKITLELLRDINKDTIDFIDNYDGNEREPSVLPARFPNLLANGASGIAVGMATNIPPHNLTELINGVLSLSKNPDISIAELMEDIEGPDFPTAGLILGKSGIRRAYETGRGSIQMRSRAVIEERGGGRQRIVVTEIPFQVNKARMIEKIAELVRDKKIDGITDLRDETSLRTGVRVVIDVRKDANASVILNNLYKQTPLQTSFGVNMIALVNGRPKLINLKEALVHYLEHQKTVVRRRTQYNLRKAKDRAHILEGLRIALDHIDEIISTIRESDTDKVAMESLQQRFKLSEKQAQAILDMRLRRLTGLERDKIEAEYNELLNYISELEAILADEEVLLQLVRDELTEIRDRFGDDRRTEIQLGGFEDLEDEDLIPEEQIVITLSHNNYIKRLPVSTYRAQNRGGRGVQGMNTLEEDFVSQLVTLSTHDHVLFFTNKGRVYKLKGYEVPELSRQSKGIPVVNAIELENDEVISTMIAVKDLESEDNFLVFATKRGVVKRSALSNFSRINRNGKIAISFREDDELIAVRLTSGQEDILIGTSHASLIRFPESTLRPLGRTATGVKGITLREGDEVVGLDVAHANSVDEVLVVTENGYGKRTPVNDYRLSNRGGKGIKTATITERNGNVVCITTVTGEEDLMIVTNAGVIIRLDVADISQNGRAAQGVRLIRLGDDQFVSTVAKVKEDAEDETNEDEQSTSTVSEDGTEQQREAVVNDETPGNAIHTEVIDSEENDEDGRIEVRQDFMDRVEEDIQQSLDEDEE

[5] = system: Staphylococcus aureus; test: Downregulation of asnS expression level in Staphylococcus aureus at 6.25 uM incubated for 1 hr in absence of light irradiation; format: functional
[6] = system: Staphylococcus aureus; test: Downregulation of alr1 expression level in Staphylococcus aureus at 6.25 uM incubated for 1 hr in absence of light irradiation; format: functional
[7] = system: Staphylococcus aureus; test: Downregulation of ddl expression level in Staphylococcus aureus at 6.25 uM incubated for 1 hr in absence of light irradiation; format: functional
[8] = system: Staphylococcus aureus; test: (§1) In vivo antibacterial activity against methicillin-resistant Staphylococcus aureus ATCC 43300 infected in female BALB/c mouse skin wound infection model assessed as collagen deposition in wound at 90 uM pre-infected with bacteria for 24 hrs followed by topical compound addition for 10 mins in presence of 600 nm 60 mW/cm2 light irradiation for 15 mins and measured on day 6 by Masson trichrome staining based analysis; format: functional, organism-based; settings: time 6.0 day
[9] = Induction of type-I ROS generation in PBS assessed as increase in hydroxyl radical by measuring increase in HPF fluorescence intensity at 10 uM irradiated with 660 nm 60 mW/cm2 light for 15 mins by HPF probe based plate reader analysis; format: functional
[10] = system: Staphylococcus aureus; test: Downregulation of ftsZ expression level in Staphylococcus aureus at 6.25 uM incubated for 1 hr in absence of light irradiation; format: functional
[11] = system: Staphylococcus aureus; test: Downregulation of hlgC protein expression in Staphylococcus aureus under light irradiation; format: functional
[12] = system: Staphylococcus aureus; test: Downregulation of glmM expression level in Staphylococcus aureus at 6.25 uM incubated for 1 hr in absence of light irradiation; format: functional
[13] = Induction of type-I ROS generation in PBS assessed as increase in singlet oxygen by measuring increase in SOSG fluorescence intensity at 10 uM irradiated with 660 nm 60 mW/cm2 light for 15 mins by SOSG probe based plate reader analysis; format: functional
[14] = system: Staphylococcus aureus; test: Selective drug uptake in Staphylococcus aureus co-cultured with human HFF-1 cells by measuring fluorescence signal at 10 uM incubated for 20 mins; format: ADME, organism-based; settings: hff-1, 20 min
[15] = system: Staphylococcus aureus; test: Downregulation of sepF expression level in Staphylococcus aureus at 6.25 uM incubated for 1 hr in absence of light irradiation; format: functional
[16] = system: Pseudomonas aeruginosa; test: Selective drug uptake in Pseudomonas aeruginosa co-cultured with human HFF-1 cells by measuring fluorescence signal at 10 uM incubated for 20 mins; format: ADME, organism-based; settings: hff-1, 20 min
[17] = system: Staphylococcus aureus; test: Downregulation of div1B expression level in Staphylococcus aureus at 6.25 uM incubated for 1 hr in absence of light irradiation; format: functional
[18] = system: Staphylococcus aureus; test: Downregulation of murD expression level in Staphylococcus aureus at 6.25 uM incubated for 1 hr in absence of light irradiation; format: functional
[19] = system: Staphylococcus aureus; test: Antibiofilm activity against Staphylococcus aureus assessed as bacterial eradication by measuring green fluorescence signal at 10 uM incubated for 1 hrs in presence of light irradiation by calcein-AM fluorescence dye based analysis; format: functional, organism-based
[20] = system: Staphylococcus aureus; test: Downregulation of murC expression level in Staphylococcus aureus at 6.25 uM incubated for 1 hr in absence of light irradiation; format: functional
[21] = system: Staphylococcus aureus; test: Downregulation of engB expression level in Staphylococcus aureus at 6.25 uM incubated for 1 hr in absence of light irradiation; format: functional
[22] = system: Staphylococcus aureus; test: Downregulation of ftsA expression level in Staphylococcus aureus at 6.25 uM incubated for 1 hr in absence of light irradiation; format: functional
[23] = system: Cell membrane; test: Induction of cell membrane damage in Staphylococcus aureus at 12.5 to 25 uM incubated for 3 hrs under dark condition by scanning electron microscopic analysis; format: subcellular; settings: dose 12.5-25 µM
[24] = system: Staphylococcus aureus; test: Downregulation of tyrS expression level in Staphylococcus aureus at 6.25 uM incubated for 1 hr in absence of light irradiation; format: functional
[25] = Induction of type-II ROS generation in PBS assessed as increase in nonspecific ROS by measuring increase in DHR123 fluorescence intensity at 10 uM irradiated with 660 nm 60 mW/cm2 light for 15 mins by DHR123 probe based plate reader analysis; format: functional
[26] = system: Staphylococcus aureus; test: Downregulation of lytH expression level in Staphylococcus aureus at 6.25 uM incubated for 1 hr in absence of light irradiation; format: functional
[27] = system: Staphylococcus aureus; test: as §1, with “reduction in inflammatory cell infiltration” for “collagen deposition”; format: functional, organism-based; settings: time 6.0 day
[28] = system: Cell membrane; test: Induction of cell membrane damage in Pseudomonas aeruginosa assessed as bacterial cell shrinkage at 10 uM preincubated with compound for 20 mins followed by 600 nm light irradiation for 45 min by SEM analysis; format: subcellular; settings: time 65.0 min
[29] = system: Staphylococcus aureus; test: Downregulation of serS expression level in Staphylococcus aureus at 6.25 uM incubated for 1 hr in absence of light irradiation; format: functional
[30] = Drug uptake in human HFF-1 cells co-cultured with Staphylococcus aureus by measuring fluorescence signal at 10 uM incubated for 20 mins; format: ADME, cell-based; settings: hff-1, 20 min
[31] = Induction of type-I ROS generation in PBS assessed as increase in nonspecific ROS by measuring increase in DHR123 fluorescence intensity at 10 uM irradiated with 660 nm 60 mW/cm2 light for 15 mins by DHR123 probe based plate reader analysis; format: functional
[32] = system: Pseudomonas aeruginosa; test: Antibacterial activity against Pseudomonas aeruginosa ATCC 27853 in presence of Muller-Hinton medium by broth microdilution method; format: functional
[33] = system: Staphylococcus aureus; test: Downregulation of femB expression level in Staphylococcus aureus at 6.25 uM incubated for 1 hr in absence of light irradiation; format: functional
[34] = system: Cell membrane; test: Induction of cell membrane damage in Pseudomonas aeruginosa assessed as RNA leakage at 10 uM preincubated with compound for 20 mins followed by 600 nm light irradiation for 45 min by absorption based plate reader analysis; format: subcellular; settings: time 65.0 min

Q: With `C#CCC[n+]1c(/C=C/c2ccc(-c3ccc(N(c4ccc(OCCC[N+](C)(C)C)cc4)c4ccc(OCCC[N+](C)(C)C)cc4)cc3)s2)sc2ccccc21.[Br-].[Br-].[Br-]` as the compound, how does the Activity [1] read?
A: Active

Q: What about the Activity [2] of the same compound?
A: Active

Q: And the Activity [3]?
A: Active

Q: What about the inhibition [4] of the same compound?
A: Active

Q: What about the Activity [5] of the same compound?
A: Active

Q: And the Activity [6]?
A: Active

Q: And the Activity [7]?
A: Active

Q: And the Activity [8]?
A: Active

Q: What about the Activity [9] of the same compound?
A: Active

Q: And the Activity [10]?
A: Active

Q: What about the Activity [11] of the same compound?
A: Active

Q: And the Activity [12]?
A: Active

Q: And the Activity [13]?
A: Active

Q: What about the Drug uptake [14] of the same compound?
A: Active

Q: What about the Activity [15] of the same compound?
A: Active

Q: And the Drug uptake [16]?
A: Active

Q: And the Activity [17]?
A: Active

Q: And the Activity [18]?
A: Active

Q: And the Activity [19]?
A: Active

Q: And the Activity [20]?
A: Active

Q: What about the Activity [21] of the same compound?
A: Active

Q: And the Activity [22]?
A: Active

Q: And the Activity [23]?
A: Active

Q: What about the Activity [24] of the same compound?
A: Active

Q: And the Activity [25]?
A: Active

Q: What about the Activity [26] of the same compound?
A: Active

Q: What about the Activity [27] of the same compound?
A: Active

Q: And the Activity [28]?
A: Active

Q: And the Activity [29]?
A: Active

Q: And the Drug uptake [30]?
A: Not_active

Q: And the Activity [31]?
A: Active

Q: And the MIC [32]?
A: ≤ 100 µM

Q: What about the Activity [33] of the same compound?
A: Active

Q: What about the Activity [34] of the same compound?
A: Active
